Experimental data as given in the supplement of paper PMC10307832.

Columns and labels:
Experiment in all cases: relative viability (nuclei count vs DMSO), 5 days (fraction); higher = more cells survive
[1] = compound: C1=CC=C2C(=C1)N=C(S2)C(C#N)C3=NC(=NC=C3)NCCC4=CN=CC=C4 + N=C(N)NC(=N)NCCc1ccccc1 [Phenformin] (partner 250 µM)
Method in brief: (§1)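 Relative viability equals treated-well nuclei counts divided by vehicle-well nuclei counts. Counts came from 4× images of lung cancer cell lines grown in 1536-well plates for 5 days after pin-tool dosing on the day after seeding. Dosing used one drug alone or a fixed anchor-drug dose plus five library-drug doses (not always all listed) in √10 steps, and values are medians of duplicate plates.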

[2] = compound: C1=CC=C2C(=C1)N=C(S2)C(C#N)C3=NC(=NC=C3)NCCC4=CN=CC=C4 + Nc1ncn([C@H]2C[C@H](O)[C@@H](CO)O2)c(=O)n1 [Decitabine] (partner 2 µM)
Method in brief: as §1

[3] = compound: C1=CC=C2C(=C1)N=C(S2)C(C#N)C3=NC(=NC=C3)NCCC4=CN=CC=C4 + CCNC(=O)c1noc(-c2cc(C(C)C)c(O)cc2O)c1-c1ccc(CN2CCOCC2)cc1 [Luminespib] (partner 0.01 µM)
Method in brief: as §1

[4] = compound: C#Cc1cccc(Nc2ncnc3cc(OC)c(OCCCCCCC(=O)NO)cc23)c1 [CUDC-101] + CS(=O)(=O)N1CCN(Cc2cc3nc(-c4cccc5[nH]ncc45)nc(N4CCOCC4)c3s2)CC1 [Pictilisib] (partner 1 µM)
Method in brief: as §1

Cell Line	relative viability ([1]; first compound 0.005 µM)	relative viability ([1]; first compound 0.01581 µM)	relative viability ([1]; first compound 0.05 µM)	relative viability ([1]; first compound 0.1581 µM)	relative viability ([1]; first compound 0.5 µM)	relative viability ([2]; first compound 0.005 µM)	relative viability ([2]; first compound 0.01581 µM)	relative viability ([2]; first compound 0.05 µM)	relative viability ([2]; first compound 0.1581 µM)	relative viability ([2]; first compound 0.5 µM)	relative viability ([3]; first compound 0.005 µM)	relative viability ([3]; first compound 0.01581 µM)	relative viability ([3]; first compound 0.05 µM)	relative viability ([3]; first compound 0.1581 µM)	relative viability ([3]; first compound 0.5 µM)	relative viability ([4]; first compound 0.01 µM)	relative viability ([4]; first compound 0.03162 µM)	relative viability ([4]; first compound 0.1 µM)	relative viability ([4]; first compound 0.3162 µM)	relative viability ([4]; first compound 1 µM)
BEN	0.243	0.28	0.286	0.304	0.46	0.654	0.666	0.664	0.863	0.811	0.081	0.337	0.254	0.688	0.342	0.569	0.499	0.601	0.454	0.304
LC-2-ad	0.575	0.507	0.541	0.598	0.611	0.698	0.819	0.818	0.827	0.726	0.807	1.06	0.965	1.17	0.91	0.421	0.601	0.549	0.301	0.104
NCI-H1299																0.978	0.839	0.766	0.653	0.412
NCI-H2009	0.466	0.477	0.476	0.508	0.437	0.37	0.386	0.379	0.427	0.397	1.1	1.09	1.05	1.07	1.05	0.813	0.824	0.963	0.917	0.699
NCI-H1395	0.422	0.378	0.415	0.449	0.418	0.721		0.732	0.769	0.742	0.878	0.641	0.822	0.679	0.819	0.59	0.682	0.564	0.652	0.581
NCI-H1650	0.375	0.335	0.523	0.402	0.377	0.335	0.333	0.496	0.432	0.407	0.171	0.191	0.176	0.204	0.2	0.57	0.552	0.559	0.446	0.293
NCI-H2085	0.639	0.702	0.595	0.819	0.799	0.518	0.555	0.585	0.502	0.533	0.439	0.368	0.4	0.388	0.413	0.539	0.549	0.493	0.489	0.304
NCI-H1666	0.529	0.578	0.556	0.539	0.511	0.72	0.696	0.8	0.738	0.798	0.856	0.965	0.986	1.1	0.833	0.395	0.397	0.322	0.394	0.271
NCI-H1993	0.586	0.514	0.461	0.58	0.542	0.663	0.641	0.607	0.699	0.59	0.846	0.852	0.821	0.834	0.738	0.845	0.824	0.918	0.763	0.869
NCI-H1437	0.298	0.3	0.345	0.339	0.223	0.484	0.6	0.508	0.602	0.548	1.06	1.25	1.12	1.18	1.1	0.4	0.44	0.46	0.375	0.149
HCC-366	0.551	0.615	0.547	0.722	0.601	0.328	0.385	0.363	0.344	0.321						0.136	0.121	0.142	0.13	0.119
IA-LM																0.311	0.293	0.322	0.233	0.106
NCI-H2342	0.495	0.591	0.674	0.606	0.614	0.727	0.844	0.694	0.837	0.71	0.555	0.708	0.794	0.776	0.841					
NCI-H522	0.649	0.642	0.61	0.691	0.588	0.718	0.651	0.607	0.639	0.66	1.07	1.05	1.12	1.15	1.12					
Calu-6																0.944	0.869	0.929	0.764	0.522
NCI-H2228	0.19	0.281	0.299	0.316	0.314						0.146	0.117	0.153	0.163	0.142	0.246	0.485	0.494	0.36	0.252
NCI-H1703																0.228	0.252	0.244	0.293	0.299
CAL-12T	0.539	0.433	0.584	0.619	0.485						0.371	0.361	0.422	0.435	0.235	0.686	0.64	0.396	0.449	0.396
HCC-78	0.677	0.635	0.656	0.814	0.741	0.776	0.779	0.634	0.825	0.747						0.246	0.205	0.209	0.153	0.145
NCI-H1623	0.62	0.582	0.567	0.617	0.579						0.932	0.466	0.508	0.322	0.346					
NCI-H1563	0.595	0.62	0.635	0.673	0.667						0.534	0.52	0.507	0.553	0.552	0.652	0.607	0.709	0.667	0.509
EBC-1																0.43	0.325	0.328	0.159	0.0697
NCI-H1648							0.438		0.535	0.388										
